Data from patent publication US20190322676A1, “CERAMIDE GALACTOSYLTRANSFERASE INHIBITORS FOR THE TREATMENT OF DISEASE” (BioMarin Pharmaceutical Inc., priority 2016, published 2019).
Counter-ions that a name gives are not always drawn.

Target: T1, human CGT (ceramide galactosyltransferase), CHO/CGT lysate (Homo sapiens, UniProt Q16880)
T1 construct: Full-length human CGT cDNA was cloned into the BamH1/Xho1 site of pcDNA3.1 (+); expressed in transfected cells; host or cells: Chinese hamster ovary (CHO) cells; lysate prepared with M-PER
T1 sequence (Q16880 21-541): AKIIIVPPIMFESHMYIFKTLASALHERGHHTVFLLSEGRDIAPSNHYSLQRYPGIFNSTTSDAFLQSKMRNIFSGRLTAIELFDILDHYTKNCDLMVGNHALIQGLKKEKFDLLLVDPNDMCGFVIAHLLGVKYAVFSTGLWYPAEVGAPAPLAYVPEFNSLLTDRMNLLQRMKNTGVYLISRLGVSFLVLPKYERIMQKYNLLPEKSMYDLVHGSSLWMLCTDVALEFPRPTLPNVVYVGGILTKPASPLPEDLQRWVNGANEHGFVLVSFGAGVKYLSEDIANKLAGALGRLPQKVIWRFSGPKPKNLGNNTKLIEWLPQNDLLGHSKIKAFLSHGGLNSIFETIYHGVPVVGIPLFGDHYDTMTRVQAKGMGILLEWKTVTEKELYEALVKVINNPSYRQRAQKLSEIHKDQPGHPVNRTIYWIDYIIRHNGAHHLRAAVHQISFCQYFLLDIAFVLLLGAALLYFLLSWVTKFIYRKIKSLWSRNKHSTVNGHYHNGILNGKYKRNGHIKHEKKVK
Experiment: CGT enzyme assay, RapidFire/MS/MS readout with 0.01% Tween added (Table 1 ranges with two asterisks **)
Assay type: biochemical
Conditions: CGT enzymatic assay; range with two asterisks (**): RapidFire/MS/MS method with 0.01% Tween added
Outline: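 Lysate (4 μg) of CHO cells transfected with full-length human CGT incubated 1 h at 37 °C with compound (0.001–50 μM) in pH 7.2 HEPES buffer with 10 μM C6-NBD-dihydro-ceramide, 17.5 μM UDP-galactose, Mg2+/Mn2+, CHAPS, BSA, 0.5% DMSO; ** set also contained 0.01% Tween 80. Product quantified by RapidFire/MS/MS, normalized to internal standard; IC50 from sigmoidal variable-slope fits.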

SMILES | IC50 [µM]
NC1CCN(C(=O)[C@@H](NS(=O)(=O)c2ccc(OCC3CCCCC3)cc2)C(F)(F)c2ccc3c(c2)oc2cc(Cl)ccc23)CC1 [Compound 198-1, (R)-N-(3-(4-aminopiperidin-1-yl)-1-(7-chlorodibenzo[b,d]furan-3-yl)-1,1-difluoro-3-oxopropan-2-yl)-4-(cyclohexylmethoxy)benzenesulfonamide] | 1 to 10
NC(=O)C1CCN(C(=O)[C@H](NS(=O)(=O)c2ccc3cc(OC4CCCC4)ccc3c2)C(F)(F)c2ccc(-c3ccc(Cl)cc3)cc2)CC1 [Compound 173-2, (S)-1-(3-(4′-chloro-[1,1′-biphenyl]-4-yl)-2-((6-(cyclopentyloxy)naphthalene)-2-sulfonamido)-3,3-difluoropropanoyl)piperidine-4-carboxamide] | 30 to 100
O=C([C@@H](NS(=O)(=O)c1ccc2cc(OC3CCCC3)ccc2c1)C(F)(F)c1ccc(-c2ccc(Cl)cc2)cc1)N1C[C@H]2CNC[C@H]2C1 [Compound 147-1, N—((R)-1-(4′-chloro-[1,1′-biphenyl]-4-yl)-1,1-difluoro-3-((3aR,6aS)-hexahydropyrrolo[3,4-c]pyrrol-2(1H)-yl)-3-oxopropan-2-yl)-6-(cyclopentyloxy) naphthalene-2-sulfonamide trifluoroacetate] | < 1
NC1CC2CCC(C1)N2C(=O)[C@H](NC(=O)[C@H](O)c1ccc(OCC2CCCCC2)cc1)C(F)(F)c1ccc(-c2ccc(Cl)cc2)cc1 (stereo partly drawn) [Compound 152-4, (2R)—N-((2S)-3-(3-amino-8-azabicyclo[3.2.1]octan-8-yl)-1-(4′-chloro-[1,1′-biphenyl]-4-yl)-1,1-difluoro-3-oxopropan-2-yl)-2-(4-(cyclohexylmethoxy)phenyl)-2-hydroxyacetamide trifluoroacetate] | 30 to 100
NC1CCN(C(=O)[C@H](NS(=O)(=O)c2cc3ccc(OC4CCCC4)cc3s2)C(F)(F)c2ccc(-c3ccc(Cl)cc3)cc2)CC1 [Compound 164-2, (S)—N-(3-(4-aminopiperidin-1-yl)-1-(4′-chloro-[1,1′-biphenyl]-4-yl)-1,1-difluoro-3-oxopropan-2-yl)-6-(cyclopentyloxy)benzo[b]thiophene-2-sulfonamide] | 1 to 10
NC1CCN(C(=O)[C@H](NS(=O)(=O)c2ccc(OCC3CCCCC3)cc2)C(F)(F)c2ccc(-c3ccccc3)cc2)CC1 [Compound 156-2, (S)—N-(1-([1,1′-biphenyl]-4-yl)-3-(4-aminopiperidin-1-yl)-1,1-difluoro-3-oxopropan-2-yl)-4-(cyclohexylmethoxy)benzenesulfonamide trifluoroacetate] | 30 to 100
O=C([C@@H](NS(=O)(=O)c1ccc(OCC2CCCCC2)cc1)C(F)(F)c1ccc(-c2ccc(Cl)cc2)cc1)N1CCNCC1 [Compound 151-1, (R)—N-(1-(4′-chloro-[1,1′-biphenyl]-4-yl)-1,1-difluoro-3-oxo-3-(piperazin-1-yl)propan-2-yl)-4-(cyclohexylmethoxy)benzenesulfonamide trifluoroacetate] | 1 to 10
NC1CCN(C(=O)[C@H](NC(=O)[C@@H](O)c2ccc3cc(OC4CCCC4)ccc3c2)C(F)(F)c2ccc(-c3ccc(Cl)cc3)cc2)CC1 [Compound 159-2, (S)—N—((S)-3-(4-aminopiperidin-1-yl)-1-(4′-chloro-[1,1′-biphenyl]-4-yl)-1,1-difluoro-3-oxopropan-2-yl)-2-(6-(cyclopentyloxy)naphthalen-2-yl)-2-hydroxyacetamide trifluoroacetate] | 30 to 100
N[C@H]1CC2CCC1N2C(=O)[C@H](NS(=O)(=O)c1ccc2cc(OC3CCCC3)ccc2c1)C(F)(F)c1ccc(-c2ccc(Cl)cc2)cc1 (stereo partly drawn) [Compound 180-2, N-((2S)-3-((2S)-2-amino-7-azabicyclo[2.2.1]heptan-7-yl)-1-(4′-chloro-[1,1′-biphenyl]-4-yl)-1,1-difluoro-3-oxopropan-2-yl)-6-(cyclopentyloxy)naphthalene-2-sulfonamide] | 10 to 30
NC1CCN(C(=O)[C@H](N(CC(F)(F)F)S(=O)(=O)c2ccc3cc(OC4CCCC4)ccc3c2)C(F)(F)c2ccc(Br)cc2)CC1 [Compound 187-2, (S)-N-(3-(4-aminopiperidin-1-yl)-1-(4-bromophenyl)-1,1-difluoro-3-oxopropan-2-yl)-6-(cyclopentyloxy)-N-(2,2,2-trifluoroethyl)naphthalene-2-sulfonamide] | 30 to 100
NC(=NO)C1CCN(C(=O)[C@@H](NS(=O)(=O)c2ccc3cc(OC4CCCC4)ccc3c2)C(F)(F)c2ccc(-c3ccc(Cl)cc3)cc2)CC1 [Compound 174-1, (R)-1-(3-(4′-chloro-[1,1′-biphenyl]-4-yl)-2-((6-(cyclopentyloxy)naphthalene)-2-sulfonamido)-3,3-difluoropropanoyl)-N′-hydroxypiperidine-4-carboximidamide] | 1 to 10
C=C(c1ccc(C(F)(F)[C@@H](NS(=O)(=O)c2ccc(OCC3CCCCC3)cc2)C(=O)N2CCC(N)CC2)cc1)C(F)(F)F [Compound 193-2, (S)-N-(3-(4-aminopiperidin-1-yl)-1,1-difluoro-3-oxo-1-(4-(3,3,3-trifluoroprop-1-en-2-yl)phenyl)propan-2-yl)-4-(cyclohexylmethoxy)benzenesulfonamide] | 30 to 100
N[C@H]1CCN(C(=O)[C@H](NS(=O)(=O)c2ccc(OCC3CCCCC3)cc2)C(F)(F)c2ccc(Cl)cc2)C1 [Compound 186-2, N-((S)-3-((S)-3-aminopyrrolidin-1-yl)-1-(4-chlorophenyl)-1,1-difluoro-3-oxopropan-2-yl)-4-(cyclohexylmethoxy)benzenesulfonamide] | 30 to 100
N[C@H]1CCN(C(=O)[C@@H](NS(=O)(=O)c2ccc3cc(OC4CCCC4)ccc3c2)C(F)(F)c2ccc(-c3ccc(Cl)cc3)cc2)CC1(F)F [Compound 161-3, N—((R)-3-((S)-4-amino-3,3-difluoropiperidin-1-yl)-1-(4′-chloro-[1,1′-biphenyl]-4-yl)-1,1-difluoro-3-oxopropan-2-yl)-6-(cyclopentyloxy)naphthalene-2-sulfonamide trifluoroacetate] | < 1
N[C@@H]1CCN(C(=O)[C@H](NS(=O)(=O)c2ccc3cc(OC4CCCC4)ccc3c2)C(F)(F)c2ccc(-c3ccc(Cl)cc3)cc2)CC1(F)F [Compound 161-4, N—((S)-3-((R)-4-amino-3,3-difluoropiperidin-1-yl)-1-(4′-chloro-[1,1′-biphenyl]-4-yl)-1,1-difluoro-3-oxopropan-2-yl)-6-(cyclopentyloxy)naphthalene-2-sulfonamide trifluoroacetate] | 1 to 10
NC1CCN(C(=O)[C@H](NC(=O)C(=O)c2cc3ccc(OC4CCCC4)cc3s2)C(F)(F)c2ccc(-c3ccc(Cl)cc3)cc2)CC1 [Compound 175-2, (S)—N-(3-(4-aminopiperidin-1-yl)-1-(4′-chloro-[1,1′-biphenyl]-4-yl)-1,1-difluoro-3-oxopropan-2-yl)-2-(6-(cyclopentyloxy)benzo[b]thiophen-2-yl)-2-oxoacetamide trifluoroacetate] | 30 to 100
NC1CC2CCC(C1)N2C(=O)[C@@H](NC(=O)[C@H](O)c1ccc(OCC2CCCCC2)cc1)C(F)(F)c1ccc(-c2ccc(Cl)cc2)cc1 (stereo partly drawn) [Compound 152-1, (2R)—N-((2R)-3-(3-amino-8-azabicyclo[3.2.1]octan-8-yl)-1-(4′-chloro-[1,1′-biphenyl]-4-yl)-1,1-difluoro-3-oxopropan-2-yl)-2-(4-(cyclohexylmethoxy)phenyl)-2-hydroxyacetamide trifluoroacetate] | 1 to 10
COc1cc(C(F)(F)[C@H](NS(=O)(=O)c2ccc3cc(OC4CCCC4)ccc3c2)C(=O)N2C[C@H]3CNC[C@H]3C2)ccc1-c1ccc(Cl)cc1 [Compound 197-1, N-((R)-1-(4′-chloro-2-methoxy-[1,1′-biphenyl]-4-yl)-1,1-difluoro-3-((3aR,6aS)-hexahydropyrrolo[3,4-c]pyrrol-2(1H)-yl)-3-oxopropan-2-yl)-6-(cyclopentyloxy)naphthalene-2-sulfonamide] | < 1
CCCOc1cc(C(F)(F)[C@H](NS(=O)(=O)c2ccc3cc(OC4CCCC4)ccc3c2)C(=O)N2CCC(N)CC2)ccc1Cl [Compound 169-1, (R)—N-(3-(4-aminopiperidin-1-yl)-1-(4-chloro-3-propoxyphenyl)-1,1-difluoro-3-oxopropan-2-yl)-6-(cyclopentyloxy)naphthalene-2-sulfonamide trifluoroacetate] | < 1

Same assay, conditions: CGT enzyme assay, RapidFire/MS/MS method with 0.01% Tween added (range with two asterisks **)

SMILES | IC50 [µM]
COc1cc(C(F)(F)[C@H](NS(=O)(=O)c2ccc3cc(OC4CCCC4)ccc3c2)C(=O)N2CCC(N)CC2)ccc1Br [Compound 143-1, (R)—N-(3-(4-aminopiperidin-1-yl)-1-(4-bromo-3-methoxyphenyl)-1,1-difluoro-3-oxopropan-2-yl)-6-(cyclopentyloxy)naphthalene-2-sulfonamide trifluoroacetate] | 1 to 10
